Test results published in patent publication US5082857A, “Chemical compound” (Kyowa Hakko Kogyo Kabushiki Kaisha, priority 1989, dated 1992).
≈ marks a conversion by molar mass, not a printed value.

Assays:
[1] = Solubility in various solvents
[2] = system: Sarcoma 180 tumour cells; experiment: Curing effect on Sarcoma 180 tumour cells; format: in vivo, female mice of ddy strain; conditions: i.v., 5 times at 24 h intervals, 10 days after inoculation
Method: As test animals, female mice of ddy strain (body weight about 20 g; each group consisting of 6 mice) were used. 5×10^6 Sarcoma 180 tumour cells were, on each occasion, inoculated into the animal under the skin of the armpit. From the first to 5th days after this, a dose of phosphate-buffered physiological saline (PBS; 0.2 ml) containing a given concentration of DC114-C as shown in Table 3 was intravenously given to the test animal. The administration was effected 5 times with an interval of 24 hours between each. […] 10 days after inoculation, T/C values viz. the ratio of the average volume (mm^3) of the tumours found on the animals treated with the test compounds to the corresponding volume found on the untreated animals were measured and these are shown in the following Table 3.

[3] = in vivo; conditions: mouse, iv
[4] = system: Klebsiella pneumoniae ATCC 10031; experiment: Anti-bacterial activity, MIC by agar dilution method; format: cell-based; conditions: ATCC10031, pH 7.0, read-out: minimum inhibitory concentration (MIC)
Text: (§1) The following Table 1 indicates minimum inhibitory concentration (MIC) of DC114-C against selected microorganisms, measured by the agar dilution method at pH 7.0.

[5] = system: Staphylococcus aureus ATCC 6538P; experiment: as above; format: cell-based; conditions: ATCC6538P, pH 7.0, read-out: minimum inhibitory concentration (MIC)
Text: as §1

[6] = system: Bacillus subtilis No. 10707; experiment: as above; format: cell-based; conditions: pH 7.0, read-out: minimum inhibitory concentration (MIC)
Text: as §1

[7] = system: Salmonella typhi ATCC 9992; experiment: as above; format: cell-based; conditions: Salmonella enterica, pH 7.0, read-out: minimum inhibitory concentration (MIC)
Text: as §1

[8] = system: Enterococcus faecium ATCC 10541; experiment: as above; format: cell-based; conditions: ATCC10541, pH 7.0, read-out: minimum inhibitory concentration (MIC)
Text: as §1

[9] = system: Balb 3T3/H-ras cells; experiment: Growth inhibition against Balb 3T3/H-ras cells (neutral red); format: cell-based; conditions: Mus musculus, BALB/3T3, read-out: IC50 (concentration required for 50% inhibition of the growth of the cells); 72 hours, 37° C.
Method: Into each well of a 96 well microtitre plate was poured a Balb 3T3/H-ras cell suspension (each 0.1 ml), containing 2×10^4 cell/ml and prepared by suspending the cells in medium A. Medium A was prepared by adding to F10 medium (commercial product of Gibco) fetal calf serum (0.1 g/ml), penicillin (100 Unit/ml) and streptomycin (100 μg/ml).
On each occasion, the plate was incubated at a temperature of 37° C. for 20 hours in a carbon dioxide incubator. Then a test sample of DC114-C was suitably diluted with medium A. The diluted sample (0.05 ml) was added to each well, followed by incubation at a temperature of 37° C. for 72 hours in the incubator. After this, the supernatant was removed from the medium. Another medium (each 0.1 ml), prepared by adding to medium A neutral red (0.02%), was added to each well. The cells were dyed by incubation at a temperature of 37° C. for one hour in the incubator.
The supernatant was removed and the residue was washed once with physiological saline. After removal of the dyestuff by using a mixture of 0.001N hydrochloric acid and 30% ethanol, a micro-plate reader was applied to the material to measure the absorbance at 550 nm. The following Table 2 indicates the results obtained by comparing the absorbance of untreated cells with the absorbance of the test sample measured at various concentrations.

Cc1cc2c(O)c3c(cc2c2oc(C4(C)OC4C4CO4)cc(=O)c12)C(=O)C1OC1(C1CC(=O)C(O)C(C)O1)C3O (stereo not shown) [DC114-C]
Solubility in chloroform, dimethylsulfoxide (DMSO), methanol, ethyl acetate and acetone ([1]; chloroform, DMSO, methanol, ethyl acetate, acetone): Readily soluble
Solubility in water and n-hexane ([1]; water, n-hexane): Hardly soluble
T/C (ratio of average tumour volume, treated to untreated) ([2]; 0.78 mg/kg each): 0.56
T/C (ratio of average tumour volume, treated to untreated) ([2]; 1.56 mg/kg each): 0.48
T/C (ratio of average tumour volume, treated to untreated) ([2]; 3.13 mg/kg each): 0.26
T/C (ratio of average tumour volume, treated to untreated) ([2]; 6.25 mg/kg each): 0.15
LD50 [3]: 17.6 mg/kg
MIC [4]: 4.2 µg/mL (≈ 7.63 µM)
MIC [5]: 0.07 µg/mL (≈ 0.127 µM)
MIC [6]: 0.26 µg/mL (≈ 0.472 µM)
MIC [7]: 8.3 µg/mL (≈ 15.1 µM)
MIC [8]: 0.13 µg/mL (≈ 0.236 µM)
IC50 [9]: 0.06 µg/mL (≈ 0.109 µM)
